Assay results published in patent US20250197865A1, “PHARMACEUTICAL COMPOSITION FOR TREATMENT OR PREVENTION OF FIBROTIC DISEASE” (KYUSHU UNIVERSITY, NATIONAL UNIVERSITY CORPORATION, priority 2022, published 2025).

What was measured:
TGFβ/SMAD pathway = assay: SIS3 treatment of myofibroblasts from carbon tetrachloride-induced fibrotic liver, mRNA by real-time RT-PCR; assay type: cell-based, mouse; conditions: myofibroblasts from CCl4 liver fibrosis model; SIS3 3 μM; P4HA3, Col1α1, Col1α2, Col3α1; FIG. 26b
Description: (§1) Hepatic stellate cells, which are involved in liver fibrosis, are known to be activated by TGFβ (Fabregat, I. et al., FEBS J., 283:2219-2232 (2016)). Therefore, the effects of TGFβ and its specific inhibitor SIS3, as well as an inhibitor of SMAD3 involved in signal transduction of the TGFβ pathway (si SMAD3), on the mRNA expression of fibrosis-related factors in […] were examined. SIS3 (CAS number: 1009104-85-1) was used under catalog number 15945 from Cayman Chemical Company. SIS3 was added to the culture medium at a final concentration of 3 μM and administered. Si SMAD3 was used as a knockdown reagent for SMAD3. si SMAD3 was used under catalog number 4390771 (Assay ID: s69495) from ThermoFisher Scientific. si SMAD3 was administered to cultured cells in the same manner as in Examples 3, 7, and 13. LX-2, a cultured hepatic stellate cell line, was cultured in DMEM supplemented with 2% FBS.
Bar graph showing the mRNA expression levels of P4HA3, 1α1 collagen (Col1α1), 1α2 collagen (Col1α2), and 3α1 collagen (Col3α1) in myofibroblasts isolated from liver tissue of a mouse model of liver damage and liver fibrosis caused by carbon tetrachloride administration and treated with SIS3, an inhibitor of the TGFβ/SMAD pathway. […] The number of samples for each group was 5.

[1] = system: P4HA3 and 1α1 collagen (Col1α1) mRNA expression in LX-2 cells; assay: TGFβ treatment of cultured LX-2 hepatic stellate cell line, mRNA by real-time RT-PCR; assay type: cell-based; conditions: TGFβ 5 ng/mL for 12 hr, FIG. 26a
Description: as §1
First, the effect of TGFβ on the mRNA expression of P4HA3 or 1α1 collagen (Col1α1) in the cultured LX-2 cells was examined. FIG. 26a is a bar graph showing the mRNA expression level of P4HA3 or 1α1 collagen (Col1α1) in LX-2 cells treated with DMSO or TGFβ (5 ng/ML) for 12 hr. […] The number of samples for each group was 3. […] Error bars indicate standard deviation.

Row | Compound | mRNA expression of fibrosis-related factors including P4HA3 (TGFβ/SMAD pathway) | mRNA expression of 1α1 collagen (Col1α1) [1] | mRNA expression of P4HA3 [1]
1 | COc1cc2c(cc1OC)CN(C(=O)/C=C/c1c(-c3ccccc3)n(C)c3ncccc13)CC2 [SIS3] | suppressed |  | 
2 | TGFβ |  | enhanced | enhanced
